Measured values as given in paper PMC10952342 (2023).

Experiments:
[1] = system: c-Myc (DNA, G4) TGAGGGTGGGTAGGGTGGGTAA; assay: emission titration (580 nm); conditions: K+ 100 mM, lithium cacodylate pH 7.3
[2] = system: HTelo (DNA, G4) AGGGTTAGGGTTAGGGTTAGGG; assay: emission titration (580 nm); conditions: lithium cacodylate pH 7.3
[3] = system: HTG4 (DNA, G4) TTGGGTTAGGGTTAGGGTTAGGGA; assay: emission titration (580 nm); conditions: K+ 100 mM, lithium cacodylate pH 7.3
[4] = system: HTelo (DNA, G4) AGGGTTAGGGTTAGGGTTAGGG; assay: CD melting (295 nm); conditions: Na+ 100 mM; 10 mM lithium cacodylate; 5 μM DNA, 10 μM compound
[5] = system: c-Myc (DNA, G4) TGAGGGTGGGTAGGGTGGGTAA; assay: CD melting (265 nm); conditions: K+ 1 mM; 10 mM lithium cacodylate; 5 μM DNA, 10 μM compound

Question: What does the source list for `OCC[S-].[Pt+2].[c-]1cc(OCCN2CCCCC2)ccc1-c1cccc(-c2ccccn2)n1`?
Answer: Ka [1]: 15.04 ± 1.18 x 10^5 M^-1; Ka ([2]; K+ 100 mM): 4.85 ± 0.66 x 10^5 M^-1; Ka ([2]; Na+ 100 mM): 4.5 ± 1.54 x 10^5 M^-1; Ka [3]: 16.35 ± 2.30 x 10^5 M^-1

Question: `CN(C)CCOc1c[c-]c(-c2cccc(-c3ccccn3)n2)cc1.OCC[S-].[Pt+2]` was tested. Which Ka [1] did it give?
Answer: 14.43 ± 7.18 x 10^5 M^-1

Question: What about the Ka ([2]; K+ 100 mM) of the same compound?
Answer: 12.5 ± 0.30 x 10^5 M^-1

Question: And the Ka ([2]; Na+ 100 mM)?
Answer: 3.5 ± 1.01 x 10^5 M^-1

Question: And the Ka [3]?
Answer: 22.04 ± 9.23 x 10^5 M^-1

Question: Which results are given for `[Cl-].[Pt+2].[c-]1cc(OCCN2CCCCC2)ccc1-c1cccc(-c2ccccn2)n1`?
Answer: Ka ([1]; 1 μM complex): 21.65 ± 0.64 x 10^5 M^-1; ΔTm [4]: 2.8 °C; Ka ([2]; K+ 100 mM, 1 μM complex): 11.77 ± 1.69 x 10^5 M^-1; Ka ([2]; Na+ 100 mM, 1 μM complex): 5.06 ± 0.59 x 10^5 M^-1; Ka ([3]; 1 μM complex): 19.18 ± 3.60 x 10^5 M^-1; ΔTm [5]: 28.3 °C

Question: `OCC[S-].[Pt+2].[c-]1cc(OCCN2CCOCC2)ccc1-c1cccc(-c2ccccn2)n1` was tested. Which Ka [1] did it give?
Answer: 6.09 ± 0.91 x 10^5 M^-1

Question: What about the Ka ([2]; K+ 100 mM) of the same compound?
Answer: 3.92 ± 0.13 x 10^5 M^-1

Question: And the Ka ([2]; Na+ 100 mM)?
Answer: 1.46 ± 0.05 x 10^5 M^-1

Question: What about the Ka [3] of the same compound?
Answer: 4.45 ± 0.58 x 10^5 M^-1

Question: What does the source list for `CN(C)CCOc1c[c-]c(-c2cccc(-c3ccccn3)n2)cc1.[Cl-].[Pt+2]`?
Answer: Ka [1]: 17.61 ± 2.87 x 10^5 M^-1; ΔTm [4]: 3.6 °C; Ka ([2]; K+ 100 mM): 10.45 ± 1.13 x 10^5 M^-1; Ka ([2]; Na+ 100 mM): 6.22 ± 0.34 x 10^5 M^-1; Ka [3]: 14.89 ± 4.37 x 10^5 M^-1; ΔTm [5]: 30 °C

Question: For `[Cl-].[Pt+2].[c-]1cc(OCCN2CCOCC2)ccc1-c1cccc(-c2ccccn2)n1`, which Ka [1] is on record?
Answer: 13.68 ± 1.56 x 10^5 M^-1

Question: And the Ka ([2]; K+ 100 mM)?
Answer: 2.95 ± 0.34 x 10^5 M^-1

Question: And the Ka ([2]; Na+ 100 mM)?
Answer: 1.47 ± 0.08 x 10^5 M^-1

Question: What about the Ka [3] of the same compound?
Answer: 3.55 ± 0.92 x 10^5 M^-1
